Laboratory results published in US8299037B2, “Feed or pharmaceutical composition comprising apramycin or an adequate salt thereof” (Poulpharm B.V.B.A., priority 2007, dated 2012).
“Also recorded” adds a separate entry of the source.

Tests used:
Histomonas meleagridis [1] = test: Prophylaxis of histomoniasis in turkey poults inoculated intracloacally, apramycin in feed (Example 1); format: in vivo, turkeys
Text: The objective of the study was to investigate the activity of apramycin as prophylactic agent against a Histomonas meleagridis strain isolated from an outbreak of histomoniasis in turkeys in Belgium (September 2005). The antibiotic (apramycin) was supplemented through the feed at 550 g of the test product/MT of feed (Ap 550) in the challenged birds. This medicated group was compared with an Infected Untreated Control (IUC) and an Uninfected Untreated Control group (UUC).
Seventy five (75) one day old male animals (turkey poults) were enrolled in the study and randomly allocated to 3 groups of 25 animals per pen. During the whole study (from day 1 to day 38), Treatment 1 (UUC) and 2 (IUC) received standard animal (turkey) feed without supplementation, whereas Treatment 3, received feed supplemented with apramycin sulphate. On day 22, Treatments 2 and 3 were inoculated intracloacally with Histomonas meleagridis. From that day one, the animals were clinically observed on a daily base. At the end of the study, D38, all remaining animals were euthanized and necropsied and lesion scored for caeca and liver.
All animals (turkeys) died during the challenge period were necropsied to determine the cause of death. […] (see Table 1 and FIG. 1).

Histomonas meleagridis [2] = conditions: turkeys; cited from earlier work
Histomonas meleagridis [3] = test: Prophylaxis of histomoniasis in turkey poults inoculated intracloacally, apramycin in feed (Example 1); format: in vivo; conditions: live weight at the end of the study; 550 g/MT of feed, turkeys
Histomonas meleagridis [4] = conditions: cited from earlier work
[5] = necropsy, 550 g/MT of feed, turkeys
[6] = 300 ppm, inoculated broiler chickens

CN[C@@H]1[C@@H](O[C@H]2O[C@H](CO)[C@@H](N)[C@H](O)[C@H]2O)OC2C[C@@H](N)[C@@H](O[C@H]3[C@H](O)[C@@H](O)[C@H](N)C[C@@H]3N)OC2[C@@H]1O (stereo partly drawn) [Ap 550, Apramycin]
Mortality due to histomoniasis (% Cumulative) (Histomonas meleagridis [1]; D 7 PI, 550 g/MT of feed, turkeys): 0.00%
Mortality due to histomoniasis (% Cumulative) (Histomonas meleagridis [1]; D 8 PI, 550 g/MT of feed, turkeys): 0.00%
Mortality due to histomoniasis (% Cumulative) (Histomonas meleagridis [1]; D 9 PI, 550 g/MT of feed, turkeys): 0.00%
Mortality due to histomoniasis (% Cumulative) (Histomonas meleagridis [1]; D 10 PI, 550 g/MT of feed, turkeys): 0.00%
Mortality due to histomoniasis (% Cumulative) (Histomonas meleagridis [1]; D11 PI, 550 g/MT of feed, turkeys): 0.00%
Mortality due to histomoniasis (% Cumulative) (Histomonas meleagridis [1]; D 12 PI, 550 g/MT of feed, turkeys): 0.00%
Mortality due to histomoniasis (% Cumulative) (Histomonas meleagridis [1]; D 13 PI, 550 g/MT of feed, turkeys): 0.00%
Mortality due to histomoniasis (% Cumulative) (Histomonas meleagridis [1]; D 14 PI, 550 g/MT of feed, turkeys): 0.00%
Mortality due to histomoniasis (% Cumulative) (Histomonas meleagridis [1]; D 15 PI, 550 g/MT of feed, turkeys): 0.00%
Mortality due to histomoniasis (% Cumulative) (Histomonas meleagridis [1]; D 16 PI, 550 g/MT of feed, turkeys): 0.00%
Mortality during the challenge period (in words) (Histomonas meleagridis [1]; inoculated turkeys, apramycin continuously in the feed): significant effect in reducing the mortality; also recorded: not a single animal died
Mean lesion score at necropsy, Caecum score (Histomonas meleagridis [1]; [5]): 0.45
Mean lesion score at necropsy, Liver score (Histomonas meleagridis [1]; [5]): 0.00
Protection against the infection by Histomonas meleagridis (in words) (Histomonas meleagridis [1]; turkeys, 550 g/MT of feed): does provide active protection
Liver and caecal lesion scores (in words) (Histomonas meleagridis [1]; turkeys, apramycin continuously in the feed): reduced significantly
Treatment effect on histomoniasis (in words) (Histomonas meleagridis [2]): No significant treatment effect
Average Weight at D40 (Histomonas meleagridis [3]): 1.40 kg
In-vivo use against histomoniasis (in words) (Histomonas meleagridis [4]; 300 ppm in broilers): ineffective
Weight gain (in words) (Histomonas meleagridis [4]; 300 ppm in broilers): no amelioration
Caecal histomoniasis lesions (in words) (Histomonas meleagridis [4]; [6]): No amelioration
Liver lesions / liver lesion scores (in words) (Histomonas meleagridis [4]; [6]): some reduction
